Reference: patent publication US4791215A, “Derivatives of glutamic acid and aspartic acid” (priority 1984, dated 1988)
Several values for one entry are separate records, joined by “and”; a condition that tells them apart may be missing. Equal entries are not always repeated.

Assays:
[1] = test system: intestinal transit of carbon; test: Anti-spastic activity, vegetable carbon intestinal transit test; assay type: in vivo, mice; details: Mus musculus, ip; read-out: antispastic activity ED50 (dose reducing intestinal transit of carbon by 50%)
Text: The anti-spastic activity which the present compounds exert on the entire digestive system is also notable. Measured in mice with the vegetable carbon test (rate of transit through the stomach and the intestine), this activity is illustrated in the following table.
claimed administered intraperitoneally in mice. Values
expressed as the ED 50 in mg/kg, that is the dose which
reduces the intestinal transit of carbon by 50%

[2] = test system: tolerance induced by morphine; test: Antagonism to development of tolerance to repeated morphine HCl, Tail Flick Test (Experiment 5); details: compound 10 mg/kg + morphine 5 mg/kg i.p.
[3] = test system: activity of analgesic drugs; test: Hot-plate test, potentiation of analgesic drugs (Experiment 2); assay type: in vivo, rats
In short: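 Male rats of about 150 g, not fasted, five per group, were placed on a plate held at 55°±1° C. Licking or jumping latency was recorded before and at 10–90 min after dosing, with a 30 s cut-off. A positive response meant at least a doubling of reaction time, reported as positives/treated.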

[4] = test system: enkephalinamide (DALA) analgesia; test: Potentiation of DALA (enkephalinamide) analgesia, i.c.v., Tail Flick Test (Experiment 4); assay type: in vivo, rats; parameters: scale not given here; details: DALA 10 + compound 0.01 mg/kg (ICV), 0.01 mg/kg
Text: Experiment No. 4: Potentiation of the analgesic activities of enkephalins induced by some of the compounds of the invention. […]

biliary flow = test: Biliary flow (choleretic activity); assay type: in vivo, rat
In short: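 In urethane-anaesthetised rats with bile duct cannulated, bile collected 1 h before and 2 h after intravenous compound dosing. Samples weighed at 30 minute intervals; 0.5 ml physiological solution given every 30 minutes to prevent dehydration.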

[5] = test system: CCK-8 induced contraction of guinea pig gall bladder; test: Anti-CCK-8 activity on gall bladders in situ; assay type: in vivo

For CCCN(CCC)C(=O)C(CCC(=O)O)NC(=O)c1ccc(C)c(C)c1 (stereo not shown) [Compound C-30], the ED50 [1] was 77.7 mg/kg, the “percentage variation in latency time (Effect %)” value ([2]; 24 h) was 66.53% and 67.27% and the “percentage variation in latency time (Effect %)” value ([2]; 48 h) was 50.61% and 67.31%. For the same compound, the “percentage variation in latency time (Effect %)” value ([2]; 72 h) was 47.53% and 56.04%, the “percentage variation in latency time (Effect %)” value ([2]; 96 h) was 29.65% and 49.48% and the “percentage variation in latency time (Effect %)” value ([2]; 120 h) was 34.24% and 34.34%. For the same compound, the “percentage variation in latency time (Effect %)” value ([2]; 144 h) was 26.97% and 27.50%, the “percentage variation in latency time (Effect %)” value ([2]; time 0) was 74.51% and 44.52% and the TOTAL positives ([3]; oxyphenylbutazone 50 + compound 3 mg/kg i.p.) was 11 x/30. The “positive responses over number treated” value ([3]; oxyphenylbutazone 50 + compound 3 mg/kg i.p., 10') was 1/5, the “positive responses over number treated” value ([3]; oxyphenylbutazone 50 + compound 3 mg/kg i.p., 20') was 1/5 and the “positive responses over number treated” value ([3]; oxyphenylbutazone 50 + compound 3 mg/kg i.p., 30') was 3/5. The “positive responses over number treated” value ([3]; oxyphenylbutazone 50 + compound 3 mg/kg i.p., 45') was 2/5, the “positive responses over number treated” value ([3]; oxyphenylbutazone 50 + compound 3 mg/kg i.p., 60') was 2/5 and the “positive responses over number treated” value ([3]; oxyphenylbutazone 50 + compound 3 mg/kg i.p., 90') was 2/5. For the same compound, the TOTAL positives ([3]; oxyphenylbutazone 50 + compound 10 mg/kg i.p.) was 12 x/30, the “positive responses over number treated” value ([3]; oxyphenylbutazone 50 + compound 10 mg/kg i.p., 10') was 1/5 and the “positive responses over number treated” value ([3]; oxyphenylbutazone 50 + compound 10 mg/kg i.p., 20') was 2/5. The “positive responses over number treated” value ([3]; oxyphenylbutazone 50 + compound 10 mg/kg i.p., 30') was 2/5, the “positive responses over number treated” value ([3]; oxyphenylbutazone 50 + compound 10 mg/kg i.p., 45') was 3/5 and the “positive responses over number treated” value ([3]; oxyphenylbutazone 50 + compound 10 mg/kg i.p., 60') was 3/5. The “positive responses over number treated” value ([3]; oxyphenylbutazone 50 + compound 10 mg/kg i.p., 90') was 2/5, the TOTAL positives ([3]; oxyphenylbutazone 50 + compound 30 mg/kg i.p.) was 20 x/30 and the “positive responses over number treated” value ([3]; oxyphenylbutazone 50 + compound 30 mg/kg i.p., 10') was 2/5. The “positive responses over number treated” value ([3]; oxyphenylbutazone 50 + compound 30 mg/kg i.p., 20') was 3/5, the “positive responses over number treated” value ([3]; oxyphenylbutazone 50 + compound 30 mg/kg i.p., 30') was 4/5 and the “positive responses over number treated” value ([3]; oxyphenylbutazone 50 + compound 30 mg/kg i.p., 45') was 4/5. The “positive responses over number treated” value ([3]; oxyphenylbutazone 50 + compound 30 mg/kg i.p., 60') was 4/5, the “positive responses over number treated” value ([3]; oxyphenylbutazone 50 + compound 30 mg/kg i.p., 90') was 3/5 and the TOTAL positives ([3]; propoxyphene 10 + compound 0.3 mg/kg i.p.) was 11 X/30. For the same compound, the “positive responses over number treated” value ([3]; propoxyphene 10 + compound 0.3 mg/kg i.p., 10') was 2/5, the “positive responses over number treated” value ([3]; propoxyphene 10 + compound 0.3 mg/kg i.p., 20') was 1/5 and the “positive responses over number treated” value ([3]; propoxyphene 10 + compound 0.3 mg/kg i.p., 30') was 3/5. For the same compound, the “positive responses over number treated” value ([3]; propoxyphene 10 + compound 0.3 mg/kg i.p., 45') was 3/5, the “positive responses over number treated” value ([3]; propoxyphene 10 + compound 0.3 mg/kg i.p., 60') was 2/5 and the “positive responses over number treated” value ([3]; propoxyphene 10 + compound 0.3 mg/kg i.p., 90') was 0/5. For the same compound, the TOTAL positives ([3]; propoxyphene 10 + compound 1 mg/kg i.p.) was 19 X/30, the “positive responses over number treated” value ([3]; propoxyphene 10 + compound 1 mg/kg i.p., 10') was 3/5 and the “positive responses over number treated” value ([3]; propoxyphene 10 + compound 1 mg/kg i.p., 20') was 4/5. For the same compound, the “positive responses over number treated” value ([3]; propoxyphene 10 + compound 1 mg/kg i.p., 30') was 4/5, the “positive responses over number treated” value ([3]; propoxyphene 10 + compound 1 mg/kg i.p., 45') was 4/5 and the “positive responses over number treated” value ([3]; propoxyphene 10 + compound 1 mg/kg i.p., 60') was 2/5. For the same compound, the “positive responses over number treated” value ([3]; propoxyphene 10 + compound 1 mg/kg i.p., 90') was 2/5, the TOTAL positives ([3]; propoxyphene 10 + compound 3 mg/kg i.p.) was 25 X/30 and the “positive responses over number treated” value ([3]; propoxyphene 10 + compound 3 mg/kg i.p., 10') was 3/5. The “positive responses over number treated” value ([3]; propoxyphene 10 + compound 3 mg/kg i.p., 20') was 5/5, the “positive responses over number treated” value ([3]; propoxyphene 10 + compound 3 mg/kg i.p., 30') was 5/5 and the “positive responses over number treated” value ([3]; propoxyphene 10 + compound 3 mg/kg i.p., 45') was 5/5. The “positive responses over number treated” value ([3]; propoxyphene 10 + compound 3 mg/kg i.p., 60') was 4/5, the “positive responses over number treated” value ([3]; propoxyphene 10 + compound 3 mg/kg i.p., 90') was 3/5 and the “analgesic activity, Tail Flick” value ([4]; 10') was 58 and 59.1. For the same compound, the “analgesic activity, Tail Flick” value ([4]; 20') was 60.8 and 67.8, the “analgesic activity, Tail Flick” value ([4]; 30') was 77.0 and 86.0 and the “analgesic activity, Tail Flick” value ([4]; 45') was 66.4 and 83.3. For the same compound, the “analgesic activity, Tail Flick” value ([4]; 60') was 48.8 and 83.3, the “analgesic activity, Tail Flick” value ([4]; 90') was 45.0 and 55.1 and the “MEAN analgesic activity, Tail Flick” value ([4]; mean) was 59.33 and 73.26. For the same compound, the “% increase in biliary flow with respect to controls” value (“% increase in biliary flow” below) (biliary flow; 12.5 mg/kg i.v.) was “+33.7%”, the “% increase in biliary flow” value (biliary flow; 25 mg/kg i.v.) was “+60.2%” and the “% increase in biliary flow” value (biliary flow; 50 mg/kg i.v.) was “+121.2%”. The “% increase in biliary flow” value (biliary flow; 100 mg/kg i.v.) was “+197.8%”, the ED50 (biliary flow; Rattus norvegicus, iv, average over 2 hours, read-out: ED50 (dose causing 50% increase in biliary flow)) was 18.5 mg/kg and the “percentage inhibition of contracting effect of CCK-8” value ([5]; 30 mg/kg i.v., single experiments) was 82.1% and 92.5% and 79.5%. It also gave an ED50 ([5]; Cavia porcellus, iv, CCK-8 10 ng/kg i.v., read-out: ED50 (inhibition of 50% of contracting effect of CCK-8)) of 13.8 mg/kg.
